Values quoted from earlier work, collected in US20180193305A1, “CROMOLYN COMPOSITIONS FOR TREATMENT OF CHRONIC COUGH DUE TO IDIOPATHIC PULMONARY FIBROSIS” (Patara Pharma, LLC, priority 2016, published 2018).
Read-outs that look alike come from different tables or passages of the source.

Details: in vivo

- Oral bioavailability: ~1%
- Oral bioavailability (listed as cromolyn): about 1%
SMILES: O=C(O)c1cc(=O)c2c(OCC(O)COc3cccc4oc(C(=O)O)cc(=O)c34)cccc2o1 [cromolyn sodium, disodium 5,5′-(2-hydroxypropane-1,3-diyl)bis(oxy)bis(4-oxo-4H-chromene-2-carboxylate)]
